≈ marks a conversion by molar mass, not a printed value.
Test system: vascular smooth muscle cell
Experiment: vascular smooth muscle cell (VSMC) proliferation study at varying concentrations of mitomycin C
Format: cell-based
Protocol: One example of a study was conducted to investigate the vascular smooth muscle cell proliferation (VSMC) from varying concentrations of the mitomycin C. […] A lower dosage of mitomycin C would still permit the advance of VSMC and contribute to increased restenosis and […]. Depending upon the observed biological effects from potentially cytotoxic local tissue levels, a higher concentration of mitomycin C may also still be sufficient.

In the case of `CO[C@@]12[C@H](COC(N)=O)C3=C(C(=O)C(C)=C(N)C3=O)N1C[C@@H]1N[C@@H]12` [mitomycin C], the IC50 (Rattus norvegicus, extrapolation from a logarithmic curve of VSMC inhibition at various dosages, read-out: concentration at which about 50% VSMC inhibition occurs) is reported as about 0.067 µg/mL (≈ 0.2 µM), the VSMC inhibited (dose of about 0.334 micrograms per milliliter) is reported as “about 66%” and the VSMC inhibited (dose of about 25.1 micrograms per milliliter) is reported as “about 98%”.

— patent publication US7396538B2, “Apparatus and method for delivery of mitomycin through an eluting biocompatible implantable medical device” (Endovascular Devices, Inc., priority 2002, dated 2008)
